Experimental data: ChEMBL document CHEMBL3124815, “Discovery of a selective kinase inhibitor (TAK-632) targeting pan-RAF inhibition: design, synthesis, and biological evaluation of C-7-substituted 1,3-benzothiazole derivatives” (J Med Chem, 2013)

Key:
A-375 [1] = assay: Antitumor activity against human A375 cells expressing BRAF V600E mutant xenografted in F344 nude rat assessed as reduction in tumor size at 9.7 mg/kg, po bid for 14 days relative to control; type: functional
[2] = AUC (0 to 24 hrs) in rat at 1 mg/kg, iv; type: ADME, organism-based; set-up: time < 24 hr, dose 1 mg/kg, route intravenous; conditions: plasma
Aurora kinase B = Aurora kinase B (Homo sapiens, UniProt Q96GD4); assay: Inhibition of N-terminal His-6-tagged Aurora kinase B (unknown origin) expressed in baculovirus system after 60 mins
Aurora kinase B, sequence (Q96GD4 whole entry): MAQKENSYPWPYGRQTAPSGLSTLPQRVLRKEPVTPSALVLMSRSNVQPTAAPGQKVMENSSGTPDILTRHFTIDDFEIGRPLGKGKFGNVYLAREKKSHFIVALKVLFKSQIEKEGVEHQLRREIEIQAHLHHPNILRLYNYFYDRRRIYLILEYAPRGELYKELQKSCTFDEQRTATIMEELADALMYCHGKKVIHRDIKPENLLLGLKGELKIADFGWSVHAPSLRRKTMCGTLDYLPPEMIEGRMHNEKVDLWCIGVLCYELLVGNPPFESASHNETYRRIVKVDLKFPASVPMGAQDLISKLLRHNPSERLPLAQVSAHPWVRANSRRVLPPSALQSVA

[3] = Total clearance in rat at 1 mg/kg, iv; type: ADME, organism-based; set-up: dose 1 mg/kg, route intravenous; conditions: in vivo
[4] = Inhibition of NRASQ61k/BRAFG469V-mutant in human HMVII cells assessed as phosphorylation of MEK after 2 hrs by Western blotting analysis; type: cell-based
Rattus norvegicus [5] = assay: Toxicity in F344 nude rat xenografted with human HMVII cells expressing NRAS Q61K/BRAF G469V mutant assessed as body weight change at 3.9 mg/kg, po bid for 14 days; type: organism-based; set-up: dose 3.9 mg/kg, route oral; conditions: in vivo, 336 h
[6] = AUC (0 to 24 hrs) in dog at 1 mg/kg, iv; type: ADME, organism-based, Canis lupus familiaris; set-up: time < 24 hr, dose 1 mg/kg, route intravenous; conditions: plasma
[7] = target: Mitogen-activated protein kinase 14 (Homo sapiens, UniProt Q16539); assay: Inhibition of C-terminal FLAG-tagged p38 alpha (unknown origin) expressed in baculovirus system using MBP as substrate after 60 mins
Mitogen-activated protein kinase 14, sequence (Q16539 whole entry): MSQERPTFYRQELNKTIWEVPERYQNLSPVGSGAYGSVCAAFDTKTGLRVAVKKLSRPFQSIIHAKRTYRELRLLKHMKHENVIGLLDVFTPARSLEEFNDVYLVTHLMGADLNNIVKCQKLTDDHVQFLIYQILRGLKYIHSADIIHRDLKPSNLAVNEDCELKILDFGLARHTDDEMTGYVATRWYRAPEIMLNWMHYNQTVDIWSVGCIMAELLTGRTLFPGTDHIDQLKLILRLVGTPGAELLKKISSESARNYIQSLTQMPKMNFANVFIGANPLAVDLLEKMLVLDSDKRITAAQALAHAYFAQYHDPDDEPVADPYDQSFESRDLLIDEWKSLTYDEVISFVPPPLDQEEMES

[8] = target: T1, RAF proto-oncogene serine/threonine-protein kinase (Homo sapiens, UniProt P04049); assay: Inhibition of CRAF (unknown origin) compound preincubated for 1 hr in presence of 1000 uM ATP
T1 sequence (P04049 whole entry): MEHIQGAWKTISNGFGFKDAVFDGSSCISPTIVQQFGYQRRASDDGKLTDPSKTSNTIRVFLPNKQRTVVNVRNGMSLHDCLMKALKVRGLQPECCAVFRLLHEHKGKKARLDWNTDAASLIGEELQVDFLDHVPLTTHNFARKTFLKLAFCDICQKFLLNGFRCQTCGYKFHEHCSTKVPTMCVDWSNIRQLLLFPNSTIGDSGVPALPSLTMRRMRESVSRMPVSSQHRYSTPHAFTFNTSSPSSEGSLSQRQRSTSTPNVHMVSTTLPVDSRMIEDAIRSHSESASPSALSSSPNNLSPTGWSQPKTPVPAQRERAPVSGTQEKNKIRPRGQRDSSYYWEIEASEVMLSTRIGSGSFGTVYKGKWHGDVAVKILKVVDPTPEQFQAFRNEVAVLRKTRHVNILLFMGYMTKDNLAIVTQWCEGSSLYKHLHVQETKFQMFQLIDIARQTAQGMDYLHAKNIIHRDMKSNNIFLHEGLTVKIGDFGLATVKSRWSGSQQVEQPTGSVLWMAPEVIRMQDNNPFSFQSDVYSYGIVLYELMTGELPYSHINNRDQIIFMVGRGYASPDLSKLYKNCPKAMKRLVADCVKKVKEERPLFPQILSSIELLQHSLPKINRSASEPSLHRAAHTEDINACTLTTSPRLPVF

A-375 [9] = assay: Antiproliferative activity against human A375 cells assessed as growth inhibition after 72 hrs by chemi-luminescence cell viability assay; type: functional; conditions: A-375, 72 h
[10] = Oral bioavailability in rat at 25 mg/kg; type: ADME, organism-based; conditions: in vivo
[11] = Mean residence time in dog at 10 mg/kg, po; type: ADME, organism-based, Canis lupus familiaris; set-up: dose 10 mg/kg, route oral; conditions: in vivo
Mus musculus = assay: AUC (0 to 8 hrs) in mouse at 10 mg/kg, po; type: ADME, organism-based, Blood; set-up: time < 8 hr, dose 10 mg/kg, route oral; conditions: in vivo
[12] = Mean residence time in rat at 25 mg/kg, po; type: ADME, organism-based; set-up: dose 25 mg/kg, route oral; conditions: in vivo
[13] = target: Cyclin-dependent kinase 1/cyclin B1 (Homo sapiens, UniProt P06493); assay: Inhibition of CDK1/CycB (unknown origin) using histone H1 as substrate after 20 mins; type: protein-complex assay
Cyclin-dependent kinase 1/cyclin B1, sequence (P06493 whole entry): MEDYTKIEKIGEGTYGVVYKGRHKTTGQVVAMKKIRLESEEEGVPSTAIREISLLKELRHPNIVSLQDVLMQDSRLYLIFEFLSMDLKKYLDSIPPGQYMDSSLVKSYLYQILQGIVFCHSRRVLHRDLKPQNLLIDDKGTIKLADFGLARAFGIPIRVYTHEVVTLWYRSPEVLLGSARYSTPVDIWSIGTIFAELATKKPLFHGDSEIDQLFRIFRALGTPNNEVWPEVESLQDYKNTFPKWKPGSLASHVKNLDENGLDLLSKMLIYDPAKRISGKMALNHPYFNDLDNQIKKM
Cyclin-dependent kinase 1/cyclin B1, sequence (P14635 whole entry, further chain): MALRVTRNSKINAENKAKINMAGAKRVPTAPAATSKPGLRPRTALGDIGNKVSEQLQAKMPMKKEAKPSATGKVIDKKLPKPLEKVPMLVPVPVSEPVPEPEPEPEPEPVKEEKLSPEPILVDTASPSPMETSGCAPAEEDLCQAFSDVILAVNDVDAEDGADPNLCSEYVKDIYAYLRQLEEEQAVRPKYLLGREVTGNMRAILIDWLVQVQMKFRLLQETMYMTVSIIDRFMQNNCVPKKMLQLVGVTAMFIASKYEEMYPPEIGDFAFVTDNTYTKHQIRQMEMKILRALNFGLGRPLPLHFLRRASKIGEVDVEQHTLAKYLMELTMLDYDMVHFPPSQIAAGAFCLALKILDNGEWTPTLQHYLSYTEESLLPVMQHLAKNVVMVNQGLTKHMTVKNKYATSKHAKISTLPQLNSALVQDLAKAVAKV

[14] = target: T1, RAF proto-oncogene serine/threonine-protein kinase; assay: Binding affinity to CRAF (unknown origin) assessed as equilibrium dissociation constant by surface plasmon resonance analysis
A-375 [15] = assay: Antitumor activity against human A375 cells expressing BRAF V600E mutant xenografted in F344 nude rat assessed as reduction in tumor size at 24.1 mg/kg, po bid for 14 days relative to control; type: functional
Rattus norvegicus [16] = assay: Toxicity in F344 nude rat xenografted with human A375 cells expressing BRAF V600E mutant assessed as body weight change at 3.9 mg/kg, po bid for 14 days relative to control; type: organism-based, A-375; set-up: dose 3.9 mg/kg, route oral; conditions: in vivo, 336 h
[17] = target: Serine/threonine-protein kinase Chk1 (Homo sapiens, UniProt O14757); assay: Inhibition of CHK1 (unknown origin) using alpha-casein as substrate after 20 mins
Serine/threonine-protein kinase Chk1, sequence (O14757 whole entry): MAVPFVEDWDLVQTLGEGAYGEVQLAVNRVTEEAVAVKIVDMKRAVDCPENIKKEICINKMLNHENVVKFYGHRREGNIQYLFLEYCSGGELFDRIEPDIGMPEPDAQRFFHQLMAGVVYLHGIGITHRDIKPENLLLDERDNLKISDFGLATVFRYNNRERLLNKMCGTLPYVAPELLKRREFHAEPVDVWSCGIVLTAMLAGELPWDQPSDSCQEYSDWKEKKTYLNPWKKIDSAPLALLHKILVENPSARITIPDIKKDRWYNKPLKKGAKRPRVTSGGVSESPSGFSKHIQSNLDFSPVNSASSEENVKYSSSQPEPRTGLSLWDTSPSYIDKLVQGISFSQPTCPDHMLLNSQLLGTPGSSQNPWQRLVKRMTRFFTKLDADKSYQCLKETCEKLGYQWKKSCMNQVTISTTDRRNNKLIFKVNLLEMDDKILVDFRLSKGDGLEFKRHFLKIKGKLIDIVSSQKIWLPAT

[18] = Oral bioavailability in dog at 10 mg/kg; type: ADME, organism-based, Canis lupus familiaris; conditions: in vivo
[19] = target: Epidermal growth factor receptor (Homo sapiens, UniProt P00533); assay: Inhibition of N-terminal peptide (DYKDDDD)-tagged EGFR (unknown origin) expressed in baculovirus system using biotinylated poly-Glu-Tyr (4:1) as substrate preincubated for 5 mins measured after 12 hrs by scintillation counting
[20] = target: Dual specificity mitogen-activated protein kinase kinase 1 (Homo sapiens, UniProt Q02750); assay: Inhibition of N-terminal GST-tagged MEK1 (unknown origin) expressed in 293 cells using GST-ERK1(K71A) as substrate after 20 mins
Rattus norvegicus [21] = assay: Toxicity in F344 nude rat xenografted with human HMVII cells expressing NRAS Q61K/BRAF G469V mutant assessed as body weight change at 24.1 mg/kg, po bid for 14 days; type: organism-based; set-up: dose 24.1 mg/kg, route oral; conditions: in vivo, 336 h
[22] = target: Receptor tyrosine-protein kinase erbB-2 (Homo sapiens, UniProt P04626); assay: Inhibition of N-terminal peptide (DYKDDDD)-tagged HER2 (unknown origin) expressed in baculovirus system using biotinylated poly-Glu-Tyr (4:1) as substrate preincubated for 5 mins measured after 12 hrs by scintillation counting
Receptor tyrosine-protein kinase erbB-2, sequence (P04626 whole entry): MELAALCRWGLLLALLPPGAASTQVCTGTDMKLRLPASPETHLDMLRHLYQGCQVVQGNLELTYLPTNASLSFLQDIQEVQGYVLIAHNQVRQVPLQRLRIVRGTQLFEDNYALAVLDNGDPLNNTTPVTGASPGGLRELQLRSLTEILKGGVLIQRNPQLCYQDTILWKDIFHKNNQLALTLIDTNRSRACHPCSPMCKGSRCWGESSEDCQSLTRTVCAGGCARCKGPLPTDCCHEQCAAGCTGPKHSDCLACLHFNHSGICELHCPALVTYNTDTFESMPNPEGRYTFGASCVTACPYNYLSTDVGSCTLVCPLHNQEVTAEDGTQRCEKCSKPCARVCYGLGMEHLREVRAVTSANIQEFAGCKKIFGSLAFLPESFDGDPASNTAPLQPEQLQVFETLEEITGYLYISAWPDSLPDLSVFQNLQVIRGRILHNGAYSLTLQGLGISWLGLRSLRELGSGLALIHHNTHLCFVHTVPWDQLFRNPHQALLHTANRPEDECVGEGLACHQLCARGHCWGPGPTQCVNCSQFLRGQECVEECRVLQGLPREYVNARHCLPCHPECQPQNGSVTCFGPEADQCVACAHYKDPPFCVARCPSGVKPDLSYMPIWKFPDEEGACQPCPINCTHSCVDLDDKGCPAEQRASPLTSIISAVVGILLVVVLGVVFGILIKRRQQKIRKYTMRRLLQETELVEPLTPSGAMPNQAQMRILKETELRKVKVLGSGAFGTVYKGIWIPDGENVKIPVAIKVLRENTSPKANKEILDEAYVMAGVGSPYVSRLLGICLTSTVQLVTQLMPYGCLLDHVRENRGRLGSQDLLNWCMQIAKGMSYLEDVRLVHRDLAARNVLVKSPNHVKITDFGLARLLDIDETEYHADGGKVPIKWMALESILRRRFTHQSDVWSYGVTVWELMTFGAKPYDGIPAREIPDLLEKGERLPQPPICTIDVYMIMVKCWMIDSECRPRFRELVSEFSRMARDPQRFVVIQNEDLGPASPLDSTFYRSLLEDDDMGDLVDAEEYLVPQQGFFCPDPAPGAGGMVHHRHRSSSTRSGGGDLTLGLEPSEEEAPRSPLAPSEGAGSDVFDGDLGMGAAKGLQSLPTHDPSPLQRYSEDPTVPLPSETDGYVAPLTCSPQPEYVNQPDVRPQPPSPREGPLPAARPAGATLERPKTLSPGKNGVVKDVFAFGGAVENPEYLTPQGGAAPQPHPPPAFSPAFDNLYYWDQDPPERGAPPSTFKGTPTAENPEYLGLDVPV

[23] = target: T1, RAF proto-oncogene serine/threonine-protein kinase; assay: Inhibition of CRAF (unknown origin) compound preincubated for 1 hr in presence of 0.5 uM ATP
[24] = target: Platelet-derived growth factor receptor beta (Homo sapiens, UniProt P09619); assay: Inhibition of PDGFR beta (unknown origin) using biotinylated poly-Glu-Tyr (4:1) as substrate preincubated for 5 mins measured after 12 hrs
Rattus norvegicus [25] = assay: Toxicity in F344 nude rat xenografted with human A375 cells expressing BRAF V600E mutant assessed as body weight change at 24.1 mg/kg, po bid for 14 days relative to control; type: organism-based, A-375; set-up: dose 24.1 mg/kg, route oral; conditions: in vivo, 336 h
[26] = target: Mitogen-activated protein kinase 8 (Homo sapiens, UniProt P45983); assay: Inhibition of C-terminal FLAG-tagged JNK1 (unknown origin) expressed in baculovirus system using c-jun as substrate after 60 mins
Mitogen-activated protein kinase 8, sequence (P45983 whole entry): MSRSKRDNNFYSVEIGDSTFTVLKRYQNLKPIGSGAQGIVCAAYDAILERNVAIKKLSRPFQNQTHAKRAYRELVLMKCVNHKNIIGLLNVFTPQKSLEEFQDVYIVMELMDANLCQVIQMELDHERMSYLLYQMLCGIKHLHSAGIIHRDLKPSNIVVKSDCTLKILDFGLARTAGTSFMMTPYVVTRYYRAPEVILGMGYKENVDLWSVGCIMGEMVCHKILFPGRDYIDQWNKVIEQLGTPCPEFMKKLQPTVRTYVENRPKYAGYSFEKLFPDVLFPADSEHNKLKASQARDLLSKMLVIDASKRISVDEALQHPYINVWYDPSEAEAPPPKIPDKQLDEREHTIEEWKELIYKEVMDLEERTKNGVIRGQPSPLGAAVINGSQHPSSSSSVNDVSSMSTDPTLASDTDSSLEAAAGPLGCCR

[27] = Solubility of the compound in phosphate buffer at pH 6.8; type: physicochemical
[28] = target: Serine/threonine-protein kinase B-raf (Homo sapiens, UniProt P15056, V600E)
Rattus norvegicus [29] = assay: Toxicity in F344 nude rat xenografted with human HMVII cells expressing NRAS Q61K/BRAF G469V mutant assessed as body weight change at 9.7 mg/kg, po bid for 14 days; type: organism-based; set-up: dose 9.7 mg/kg, route oral; conditions: in vivo, 336 h
[30] = target: T1, RAF proto-oncogene serine/threonine-protein kinase
Description: Binding affinity to CRAF (unknown origin) assessed as dissociation half life by surface plasmon resonance analysis

[31] = target: Serine/threonine-protein kinase B-raf (Homo sapiens, UniProt P15056); assay: Binding affinity to BRAF (unknown origin) assessed as equilibrium dissociation constant by surface plasmon resonance analysis
[32] = target: T1, RAF proto-oncogene serine/threonine-protein kinase; assay: Competitive inhibition of CRAF (unknown origin) in presence of 0.5 uM ATP by ELISA
[33] = Inhibition of PKA (unknown origin) expressed in Escherichia coli after 10 mins; set-up: species or system Homo sapiens
[34] = target: Protein kinase C theta type (Homo sapiens, UniProt Q04759); assay: Inhibition of C-terminal FLAG-tagged PKC-theta (unknown origin) expressed in […] using MBP as substrate after 60 mins
Protein kinase C theta type, sequence (Q04759 whole entry): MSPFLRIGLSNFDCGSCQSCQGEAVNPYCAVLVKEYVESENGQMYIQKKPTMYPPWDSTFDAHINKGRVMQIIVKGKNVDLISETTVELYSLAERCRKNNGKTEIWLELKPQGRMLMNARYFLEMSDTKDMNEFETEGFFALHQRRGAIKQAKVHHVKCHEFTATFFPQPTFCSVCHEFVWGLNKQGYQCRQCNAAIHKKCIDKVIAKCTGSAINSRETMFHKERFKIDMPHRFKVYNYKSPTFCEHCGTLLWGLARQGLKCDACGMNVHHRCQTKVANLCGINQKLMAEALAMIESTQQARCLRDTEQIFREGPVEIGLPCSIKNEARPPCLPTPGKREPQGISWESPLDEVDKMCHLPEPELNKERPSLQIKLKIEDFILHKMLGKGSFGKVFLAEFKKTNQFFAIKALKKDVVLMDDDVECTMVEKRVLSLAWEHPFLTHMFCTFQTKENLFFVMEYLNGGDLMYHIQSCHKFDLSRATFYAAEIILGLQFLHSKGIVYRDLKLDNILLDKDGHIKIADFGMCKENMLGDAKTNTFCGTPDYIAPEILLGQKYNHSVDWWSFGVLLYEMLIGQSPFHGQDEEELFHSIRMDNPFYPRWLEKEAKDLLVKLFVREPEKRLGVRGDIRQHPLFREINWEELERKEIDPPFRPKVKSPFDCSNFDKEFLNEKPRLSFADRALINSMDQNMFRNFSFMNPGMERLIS

[35] = Antiproliferative activity against human HMVII cells assessed as growth inhibition after 72 hrs by chemi-luminescence cell viability assay; type: functional; conditions: HMV-2, 72 h
[36] = Total clearance in dog at 1 mg/kg, iv; type: ADME, organism-based, Canis lupus familiaris; set-up: dose 1 mg/kg, route intravenous; conditions: in vivo

## N#Cc1c(Oc2ccc(F)c(NC(=O)Cc3cccc(C(F)(F)F)c3)c2)ccc2nc(NC(=O)C3CC3)sc12
A-375 [1]
  T/C: -2.1%
[2]
  AUC(0-t) at 24 h: 2510 ng·h/mL
Aurora kinase B
  IC50: 66 nM
[3]
  clearance: 6.67 mL/min/kg
[4]
  IC50: 49 nM
Rattus norvegicus [5]
  Activity: -4.8 g
[6]
  AUC(0-t) at 24 h: 1430 ng·h/mL
[7]
  IC50: 600 nM
[8]
  IC50: 5 nM
A-375 [9]
  GI50: 66 nM
[10]
  bioavailability: 51.7%
[11]
  MRT: 7.12 h
Mus musculus
  AUC: 2480 ng·h/mL
[12]
  MRT: 6.27 h
[13]
  IC50: 790 nM
[14]
  Kd: 0.52 nM
A-375 [15]
  T/C: -12.1%
Rattus norvegicus [16]
  Activity: 11.2 g
[17]
  IC50: 1400 nM
[18]
  bioavailability: 108%
[19]
  IC50: > 10000 nM
[20]
  IC50: 3700 nM
Rattus norvegicus [21]
  Activity: 28.4 g
[22]
  IC50: > 10000 nM
[23]
  IC50: 1.5 nM
[24]
  IC50: 120 nM
Rattus norvegicus [25]
  Activity: 18.6 g
[26]
  IC50: > 10000 nM
[27]
  solubility: < 0.02 µg/mL
[28]
  IC50: 15 nM
Rattus norvegicus [29]
  Activity: 9.8 g
[30]
  T1/2: 2.15 h
[31]
  Kd: 1.6 nM
[32]
  IC50: 8.1 nM
[32]; TDE = time-dependent effect
  inhibition: tde
[33]
  IC50: > 10000 nM
[34]
  IC50: > 10000 nM
[35]
  GI50: 200 nM
[36]
  clearance: 11.7 mL/min/kg
